Reference: paper PMC2667896 (Archives of Drug Information, 2009)
Like-named read-outs stand apart in the source and are kept apart here.

Tests used:
[1] = Steady-state plasma pharmacokinetics in healthy volunteers; format: in vivo, human
CYP3A4 = conditions: cited from earlier work
[2] = cited from earlier work
[3] = Day 11, Arm 1, participant 2, saquinavir/ritonavir 1,000/100 mg orally twice daily
[4] = Day 11, Arm 1, participant 4, saquinavir/ritonavir 1,000/100 mg orally twice daily
[5] = Day 12, Arm 1, participant 2, saquinavir/ritonavir 1,000/100 mg orally twice daily
[6] = Day 12, Arm 1, participant 4, saquinavir/ritonavir 1,000/100 mg orally twice daily
[7] = Day 13, Arm 1, participant 2, saquinavir/ritonavir 1,000/100 mg orally twice daily
[8] = Day 13, Arm 1, participant 4, saquinavir/ritonavir 1,000/100 mg orally twice daily

Structure (SMILES)	Individual trough plasma concentration ([1]; Day 11, Arm 2, participant 1, efavirenz 600 mg orally once daily)	Individual trough plasma concentration ([1]; Day 12, Arm 2, participant 1, efavirenz 600 mg orally once daily)	Individual trough plasma concentration ([1]; Day 13, Arm 2, participant 1, efavirenz 600 mg orally once daily)	AUC ([1]; human, plasma, po, 600 mg)	Cmax ([1]; human, plasma, po, 600 mg)	Tmax ([1]; human, plasma, po, 600 mg)	half-life ([1]; human, plasma, po, 600 mg)	Effect on CYP3A4 (CYP3A4; efavirenz)	half-life [2]	Individual trough plasma concentration [1, 3]	Individual trough plasma concentration [1, 4]	Individual trough plasma concentration [1, 5]	Individual trough plasma concentration [1, 6]	Individual trough plasma concentration [1, 7]	Individual trough plasma concentration [1, 8]	half-life ([1]; human, plasma, po)	Tmax ([1]; steady state (day 14), Arm 1, participant 2, saquinavir/ritonavir 1,000/100 mg orally twice daily)	Tmax ([1]; human, plasma, po)	Effect on CYP3A4 (CYP3A4; saquinavir)
O=C1Nc2ccc(Cl)cc2[C@@](C#CC2CC2)(C(F)(F)F)O1 [Efavirenz]	1,080 ng/mL	1,050 ng/mL	1,060 ng/mL	42500 ng·h/mL	4780 ng/mL	2 h	1590 min	potent inducer	40 to 55 h	–	–	–	–	–	–	–	–	–	–
CC(C)c1nc(CN(C)C(=O)N[C@H](C(=O)N[C@@H](Cc2ccccc2)C[C@H](O)[C@H](Cc2ccccc2)NC(=O)OCc2cncs2)C(C)C)cs1 [Ritonavir]	–	–	–	–	–	–	–	–	–	57.8 ng/mL	137 ng/mL	83.8 ng/mL	163 ng/mL	86.2 ng/mL	251 ng/mL	212 min	1.00 h	–	–
CC(C)(C)NC(=O)[C@@H]1C[C@@H]2CCCC[C@@H]2CN1C[C@@H](O)[C@H](Cc1ccccc1)NC(=O)[C@H](CC(N)=O)NC(=O)c1ccc2ccccc2n1 [Saquinavir]	–	–	–	–	–	–	–	–	–	337 ng/mL	602 ng/mL	640 ng/mL	700 ng/mL	867 ng/mL	1,220 ng/mL	359 min	–	2 h	weak CYP3A4 inhibitor
